# How the values were obtained:
# [1] = test system: rabbit serum obtained by immunizing a rabbit with the SARS-CoV strain Frankfurt 1; assay type: binding; design: Binding of a rabbit serum to linear peptides / Binding of a rabbit serum to looped peptides / Rabbit serum linear peptides / Rabbit serum looped peptides / Binding of a rabbit serum to linear peptides of protein N of SARS-CoV Urbani (Rabbit serum linear peptides) / Binding of a rabbit serum to looped/cyclic peptides of protein N of SARS-CoV Urbani (Rabbit serum looped peptides): unit not given here
# [2] = test system: control sera (pooled serum of ten healthy LUMC hospital workers; commercial negative donor pooled serum from the Dutch bloodbank); assay type: binding, human; design: Binding of Control serum LUMC to linear peptides / Binding of Control serum Blood-bank to linear peptides / Binding of Control serum LUMC to looped peptides / Binding of Control Serum Blood-Bank to Looped peptides / Binding of Control serum LUMC to linear peptides of the protein M of SARS-CoV Urbani / Binding of Control serum Blood-bank to linear peptides of the protein M of SARS-CoV Urbani / Binding of Control serum LUMC to looped peptides of the protein M of SARS-CoV Urbani / Binding of Control Serum Blood-Bank to Looped peptides of the protein M of SARS-CoV Urbani: unit not given here
# [3] = test system: antibodies in sera from SARS patients (sera 1a, 1b, 2, 6, 37, 62, London, SARS-yellow, SARS-green); assay type: binding, human; design: Binding of serum 6 to linear peptides of protein X1 of SARS-CoV Urbani / Binding of serum 37 to linear peptides of protein X1 of SARS-CoV Urbani / Binding of serum 6 to looped/cyclic peptide (PEPSCAN-ELISA) / Binding of serum 37 to looped/cyclic peptide (PEPSCAN-ELISA) / Binding of serum 37 to looped/cyclic peptides of protein X1 of SARS-CoV Urbani / Binding of serum 6 to linear peptides of protein X2 / Binding of serum 37 to linear peptides of protein X2 / Binding of serum 37 to looped/cyclic peptides of protein X2 of SARS-CoV Urbani / Binding of serum 6 to linear peptides of protein M of SARS-CoV Urbani / Binding of serum 37 to linear peptides of protein M of SARS-CoV Urbani / Binding of serum 6 to looped/cyclic peptides of protein M of SARS-CoV Urbani / Binding of serum 37 to looped/cyclic peptides of protein M of SARS-CoV Urbani / Binding of serum 6 to linear peptides of protein X3 of SARS-CoV Urbani / Binding of serum 37 to linear peptides of protein X3 of SARS-CoV Urbani / Binding of serum 37 to looped/cyclic peptides of protein X3 of SARS-CoV Urbani / Binding of serum 6 to linear peptides of protein X4 of SARS-CoV Urbani / Binding of serum 37 to linear peptides of protein X4 of SARS-CoV Urbani / Binding of serum 37 to looped/cyclic peptides of protein X4 of SARS-CoV Urbani / Binding of serum 6 to linear peptides of protein X5 of SARS-CoV Urbani / Binding of serum 37 to linear peptides of protein X5 of SARS-CoV Urbani / Binding of serum 37 to looped/cyclic peptides of protein X5 of SARS-CoV Urbani / Binding of serum 6 to linear peptides of protein N of SARS-CoV Urbani / Binding of serum 37 to linear peptides of protein N of SARS-CoV Urbani / Binding of serum 6 to linear peptide (PEPSCAN-ELISA) / Binding of serum 1a to looped/cyclic peptides of protein N of SARS-CoV Urbani / Binding of serum 1b to looped/cyclic peptides of protein N of SARS-CoV Urbani / Binding of serum 2 to looped/cyclic peptides of protein N of SARS-CoV Urbani / Binding of serum 6 to looped/cyclic peptides of protein N of SARS-CoV Urbani / Binding of serum 37 to looped/cyclic peptides of protein N of SARS-CoV Urbani / Binding of serum 62 to looped/cyclic peptides of protein N of SARS-CoV Urbani / Binding of serum London to looped/cyclic peptides of protein N of SARS-CoV Urbani / Binding of serum SARS-green to looped/cyclic peptides of protein N of SARS-CoV Urbani: unit not given here
sequence,measurement,setting,value
GTITVEELKQLLEQW,Recognition of the peptide by the rabbit serum,[1],recognized
TYEGNSPFHPLADNK,Rabbit serum linear peptides,[1],0.7
same,Rabbit serum looped peptides,[1],0.4
VHATATIPLQASLPF,Binding of a rabbit serum to linear peptides,[1],0.1
same,Binding of a rabbit serum to looped peptides,[1],0.6
GFQFIGNLLLLFVTI,Binding of a rabbit serum to linear peptides,[1],0.9
same,Binding of a rabbit serum to looped peptides,[1],0.5
TTVYHTTVSQIQLSL,Binding of Control Serum Blood-Bank to Looped peptides,[2],0.6
same,Binding of Control serum Blood-bank to linear peptides,[2],0.6
same,Binding of Control serum LUMC to linear peptides,[2],0.7
same,Binding of Control serum LUMC to looped peptides,[2],0.5
IAMACIVGLMWLSYF,Binding of Control Serum Blood-Bank to Looped peptides of the protein M of SARS-CoV Urbani,[2],0.6
same,Binding of Control serum Blood-bank to linear peptides of the protein M of SARS-CoV Urbani,[2],0.5
same,Binding of Control serum LUMC to linear peptides of the protein M of SARS-CoV Urbani,[2],0.6
same,Binding of Control serum LUMC to looped peptides of the protein M of SARS-CoV Urbani,[2],0.7
same,Binding of serum 1a to linear peptides of protein M of SARS-CoV Urbani,[3],0.6
same,Binding of serum 1a to looped/cyclic peptides of protein M of SARS-CoV Urbani,[3],0.6
same,Binding of serum 1b to linear peptides of protein M of SARS-CoV Urbani,[3],0.5
same,Binding of serum 1b to looped/cyclic peptides of protein M of SARS-CoV Urbani,[3],0.4
same,Binding of serum 2 to linear peptides of protein M of SARS-CoV Urbani,[3],0.4
same,Binding of serum 2 to looped/cyclic peptides of protein M of SARS-CoV Urbani,[3],0.4
same,Binding of serum 6 to linear peptides of protein M of SARS-CoV Urbani,[3],0.3
same,Binding of serum 6 to looped/cyclic peptides of protein M of SARS-CoV Urbani,[3],0.7
same,Binding of serum 37 to linear peptides of protein M of SARS-CoV Urbani,[3],0.3
same,Binding of serum 37 to looped/cyclic peptides of protein M of SARS-CoV Urbani,[3],0.4
same,Binding of serum 62 to linear peptides of protein M of SARS-CoV Urbani,[3],0.3
same,Binding of serum 62 to looped/cyclic peptides of protein M of SARS-CoV Urbani,[3],0.4
same,Binding of serum London to linear peptides of protein M of SARS-CoV Urbani,[3],0.3
same,Binding of serum London to looped/cyclic peptides of protein M of SARS-CoV Urbani,[3],0.2
same,Binding of serum SARS-green to linear peptides of protein M of SARS-CoV Urbani,[3],0.3
same,Binding of serum SARS-green to looped/cyclic peptides of protein M of SARS-CoV Urbani,[3],0.3
same,Binding of serum SARS-yellow to linear peptides of protein M of SARS-CoV Urbani,[3],0.2
same,Binding of serum SARS-yellow to looped/cyclic peptides of protein M of SARS-CoV Urbani,[3],0.6
MVQTGTPNVTINCQD,Binding of Control Serum Blood-Bank to Looped peptides,[2],0.3
same,Binding of Control serum Blood-bank to linear peptides,[2],0.8
same,Binding of Control serum LUMC to linear peptides,[2],0.6
same,Binding of Control serum LUMC to looped peptides,[2],0.3
FICNLLLLFVTTYSH,Binding of Control Serum Blood-Bank to Looped peptides,[2],0.5
same,Binding of Control serum Blood-bank to linear peptides,[2],0.6
same,Binding of Control serum LUMC to linear peptides,[2],0.5
same,Binding of Control serum LUMC to looped peptides,[2],0.5
RCWLGWKCKSKNPLL,Binding of Control Serum Blood-Bank to Looped peptides,[2],0.7
same,Binding of Control serum Blood-bank to linear peptides,[2],1.2
same,Binding of Control serum LUMC to linear peptides,[2],1.0
same,Binding of Control serum LUMC to looped peptides,[2],0.7
IMRCWLCWKCKSKNP,Binding of Control Serum Blood-Bank to Looped peptides,[2],0.4
same,Binding of Control serum Blood-bank to linear peptides,[2],0.5
same,Binding of Control serum LUMC to linear peptides,[2],0.5
same,Binding of Control serum LUMC to looped peptides,[2],0.2
same,Binding of serum 1a to looped/cyclic peptide (PEPSCAN-ELISA),[3],0.3
same,Binding of serum 1b to looped/cyclic peptide (PEPSCAN-ELISA),[3],0.1
same,Binding of serum 2 to looped/cyclic peptide (PEPSCAN-ELISA),[3],0.1
same,Binding of serum 6 to looped/cyclic peptide (PEPSCAN-ELISA),[3],0.2
same,Binding of serum 37 to looped/cyclic peptide (PEPSCAN-ELISA),[3],0.3
same,Binding of serum 62 to looped/cyclic peptide (PEPSCAN-ELISA),[3],0.3
same,Binding of serum London to looped/cyclic peptide (PEPSCAN-ELISA),[3],0.1
same,Binding of serum SARS-green to looped/cyclic peptide (PEPSCAN-ELISA),[3],0.1
same,Binding of serum SARS-yellow to looped/cyclic peptide (PEPSCAN-ELISA),[3],0.0
same,"Recognition of the peptide by sera of SARS-CoV infected individuals, and form (linear, looped/cyclic) in which it is recognized",[3],recognized in linear form
SLTSLLKTHRMCKYT,Binding of serum 1a to linear peptides of protein X2,[3],0.8
same,Binding of serum 1a to looped/cyclic peptides of protein X2 of SARS-CoV Urbani,[3],0.3
same,Binding of serum 1b to linear peptides of protein X2,[3],0.4
same,Binding of serum 1b to looped/cyclic peptides of protein X2 of SARS-CoV Urbani,[3],0.3
same,Binding of serum 2 to linear peptides of protein X2,[3],0.4
same,Binding of serum 2 to looped/cyclic peptides of protein X2 of SARS-CoV Urbani,[3],0.1
same,Binding of serum 6 to linear peptides of protein X2,[3],0.4
same,Binding of serum 6 to looped/cyclic peptides of protein X2 of SARS-CoV Urbani,[3],0.2
same,Binding of serum 37 to linear peptides of protein X2,[3],0.3
same,Binding of serum 37 to looped/cyclic peptides of protein X2 of SARS-CoV Urbani,[3],0.2
same,Binding of serum 62 to linear peptides of protein X2,[3],0.7
same,Binding of serum 62 to looped/cyclic peptides of protein X2 of SARS-CoV Urbani,[3],0.4
same,Binding of serum London to linear peptides of protein X2,[3],0.4
same,Binding of serum London to looped/cyclic peptides of protein X2 of SARS-CoV Urbani,[3],0.2
same,Binding of serum SARS-green to linear peptides of protein X2,[3],0.5
same,Binding of serum SARS-green to looped/cyclic peptides of protein X2 of SARS-CoV Urbani,[3],0.2
same,Binding of serum SARS-yellow to linear peptides of protein X2,[3],0.3
same,Binding of serum SARS-yellow to looped/cyclic peptides of protein X2 of SARS-CoV Urbani,[3],0.3
GHPLGRCDIKDLPKE,Binding of Control Serum Blood-Bank to Looped peptides of the protein M of SARS-CoV Urbani,[2],0.7
same,Binding of Control serum Blood-bank to linear peptides of the protein M of SARS-CoV Urbani,[2],0.6
same,Binding of Control serum LUMC to linear peptides of the protein M of SARS-CoV Urbani,[2],0.6
same,Binding of Control serum LUMC to looped peptides of the protein M of SARS-CoV Urbani,[2],0.7
